Measurements: patent US6800464B2, “Arthrobacter D-carbamoylase and methods of preparing enantiomerically enriched D-amino acids” (Degussa AG, priority 2001, dated 2004)
Read-outs that look alike come from different tables or passages of the source. Values belong to the molecule of their own block, whether it stands above or below them.

How the values were obtained:
[1] = target: D-carbamoylase from Arthrobacter crystallopoietes DSM 20117 (Crystallibacter crystallopoietes, UniProt A0A1H1C375); assay: Substrate specificity of the purified D-carbamoylase (relative conversion of carbamoyl substrates); type: biochemical; details: for Rel. act. / conversion of substrate (in words): 30° C.; for Rel. act.: 0.1 M potassium phosphate buffer pH 8.0, 20 mM isomer mixture or 10 mM pure isomer, D,L-Carbamoyl-phenylalanine set at 100% (2 U/mg); for conversion of substrate (in words): assay conditions of substrate spectrum, pH 8.0
Method: (§1) The homogeneously purified D-carbamoylase with the His-tag and ttg start codon (pMW1 —FIG. 5) was used for characterization of the enzyme obtained in this way. The enzyme was present in 0.1 M KPB pH 8.0.
To determine the substrate spectrum, the enzyme was incubated at a reaction temperature of 30° C. with the particular substrate in the presence of 0.1 M potassium phosphate buffer pH 8.0. To ensure the same concentration of the D-isomer, if the substrate was present as an isomer mixture a concentration of 20 mM was established; if the substrate was present as a pure isomer a concentration of 10 mM was established.

purified D-carbamoylase = assay: Cofactor dependence: inactivation by complexing agents and sulfhydryl reagents, reactivation by metal ions; type: biochemical, Arthrobacter crystallopoietes DSM 20117; details: for inactivation of the enzyme by complexing agent: 10 mM, incubation at 25° C., 8-HQSA: within less than two hours
Method: as §1
In order to be able to differentiate the inactivation by the complexing agent from the thermal inactivation, an aliquot of the enzyme solution was co-incubated without 8-HQSA and the activity was monitored with respect to time. It was concluded that to reactivate the enzyme, the 8-HQSA had to be removed from the enzyme by gel filtration, and incubation had to be carried out in the presence of 2 mM metal ions. However, neither Cu^2+, Co^2+, Mn^2+, Mg^2+, Fe^2+ nor Zn^2+ led to a reactivation of the enzyme.

[2] = substrate: NC(=O)N[C@H](Cc1c[nH]c2ccccc12)C(=O)O; assay: Determination of kinetic parameters (Km, vmax) of the D-carbamoylase; type: biochemical, Arthrobacter crystallopoietes DSM 20117; details: other: Michaelis-Menten kinetics, Enzymfit program; pH 8.0
Method: as §1
For determination of Vmax and Km, the rate of reaction v was plotted as a function of the substrate concentration. The calculation of the kinetic parameters was carried out via the Enzymfit program (developed at the Institute of Bioprocess Technology, University of Stuttgart). […] The reaction can be described here by Michaelis-Menten kinetics (see equation 1). [formula]

[3] = Determination of the optimum pH of the purified D-carbamoylase; type: biochemical; details: pH range 6.5 to 9.0, DL-C-phenylalanine, 30° C., 100 mM buffers
Method: To determine the optimum pH of the purified D-carbamoylase, conversions were carried out at various pH values in a range from 6.5 to 9.0 with DL-C-phenylalanine as the substrate at 30° C. In order to be able to rule out concentration effects, the buffer concentration of all the buffers used (Tris, potassium phosphate and Tris-glycine) was adjusted to a value of 100 mM. The activity maximum of the D-carbamoylase was at pH 8.

Molecule: CSCCC(NC(N)=O)C(=O)O (racemic) [D,L-Carbamoyl-methionine]
Rel. act. [1]: 13%

Molecule: NC(=O)NC(CO)C(=O)O (racemic) [D,L-Carbamoyl-serine]
Rel. act. [1]: 35%

Molecule: CC(C)(C)C(NC(N)=O)C(=O)O (racemic) [D,L-Carbamoyl-tert-leucine]
Rel. act. [1]: 18%

Molecule: CC(C)C(NC(N)=O)C(=O)O (racemic) [D,L-Carbamoyl-valine]
Rel. act. [1]: 31%

inactivation of the D-carbamoylase by sulfhydryl reagents (purified D-carbamoylase; 1 mM): complete inactivation
Molecule: O=C(O)c1ccccc1[N+](=O)[O-] [2-nitrobenzoate]

inactivation of the enzyme by complexing agent (purified D-carbamoylase): compete inhibition
Molecule: O=S(=O)(O)c1ccc(O)c2ncccc12 [8-hydroxyquinolinesulfonic acid]

Molecule: C[C@@H](NC(N)=O)C(=O)O [D-Carbamoyl-alanine]
Rel. act. [1]: 510%
conversion relative to all other substrates ([1]; compared with all other substrates of table 5): at least five times better

Rel. act. [1]: 80%
Molecule: NC(=O)N[C@H](Cc1c[nH]c2ccccc12)C(=O)O [D-Carbamoyl-tryptophan]

inactivation of the enzyme by complexing agent (purified D-carbamoylase): no inactivation
Molecule: O=C(O)CN(CCN(CC(=O)O)CC(=O)O)CC(=O)O [EDTA]

conversion of substrate (in words) [1]: not converted
Molecule: NC(=O)N[C@@H](Cc1c[nH]c2ccccc12)C(=O)O [L-carbamoyl-tryptophan]

Molecule: CC(C)[C@H](NC(N)=O)C(=O)O [L-carbamoyl-valine]
conversion of substrate (in words) [1]: not converted

Molecule: O=C(O)CI [iodine acetate]
inactivation of the D-carbamoylase by sulfhydryl reagents (purified D-carbamoylase): complete inactivation

Molecule: O=C(O)c1cc[c]([Hg][Cl])cc1 [para-chloro-mercury benzoate]
inactivation of the D-carbamoylase by sulfhydryl reagents (purified D-carbamoylase; 1 mM): complete inactivation

Molecule: β-Ureido-propionate
Rel. act. [1]: 0%
conversion of substrate (in words) [1]: not converted

B1: D-carbamoylase from Arthrobacter crystallopoietes DSM 20117 (Crystallibacter crystallopoietes) (protein)
chain: MAKNLMLAVAQVGGIDSSESRPEVVARLIALLEEAASQGAELVVFPELTLTTFFPRTWFEEGDFEEYFDKSMPNDDVAPLFERAKDLGVGFYLGYAELTSDEKRYNTSILVNKHGDIVGKYRKMHLPGHADNREGLPNQHLEKKYFREGDLGFGVFDFHGVQVGMCLCNDRRWPEVYRSLALQGAELVVLGYNTPDFVPGWQEEPHAKMFTHLLSLQAGAYQNSVFVAAAGKSGFEDGHHMIGGSAVAAPSGEILAKAAGEGDEVVVVKADIDMGKPYKESVFDFAAHRRPDAYGIIAERKGRGAPLPVPFNVND
Km [2]: 7.5 mM
Vmax [2]: 2.4 U/mg

B2: D-carbamoylase: homogeneously purified recombinant D-carbamoylase from Arthrobacter crystallopoietes DSM 20117 (SEQ ID NO: 2) (protein)
chain: MAKNLMLAVAQVGGIDSSESRPEVVARLIALLEEAASQGAELVVFPELTLTTFFPRTWFEEGDFEEYFDKSMPNDDVAPLFERAKDLGVGFYLGYAELTSDEKRYNTSILVNKHGDIVGKYRKMHLPGHADNREGLPNQHLEKKYFREGDLGFGVFDFHGVQVGMCLCNDRRWPEVYRSLALQGAELVVLGYNTPDFVPGWQEEPHAKMFTHLLSLQAGAYQNSVFVAAAGKSGFEDGHHMIGGSAVAAPSGEILAKAAGEGDEVVVVKADIDMGKPYKESVFDFAAHRRPDAYGIIAERKGRGAPLPVPFNVND
modifications: OTHER INFORMATION: … DNA
activity maximum (optimum pH) [3]: 8
